Laboratory results reported in patent publication US10144929B2, “Polypeptide inhibitors of Smad3 polypeptide activities” (Mayo Foundation for Medical Education and Research, priority 2016, dated 2018).

Key:
CTS SSCT fibroblasts = assay: TGF-β responsive gene expression in CTS subsynovial connective tissue fibroblasts (qRT-PCR); type: cell-based, human; details: 1.5 μM, 90 minutes pretreatment, 2 ng/mL TGF-β 24 hours
Description: FIG. 8 is a graph plotting the expression of CTGF. TGFβ stimulated CTGF gene expression was examined in subsynovial connective tissue as in FIGS. 3D and 4B following addition of TAT-SH3-2 (SNX9 peptide) or TAT-SH3-2M (Control peptide). The results were normalized to control treatments without TGFβ.
FIG. 9 is a graph plotting the expression of PAI-1 by cells exposed to the indicated treatments. TGFβ stimulated PAI-1 gene expression was examined in subsynovial connective tissue as in FIG. 8.
Fibroblasts were harvested from CTS patient SSCT tissue (n=3) who had carpal tunnel release surgery as described elsewhere (Gingery et al., J. Orthop. Res., 32(11):1444-50 (2014)). The CTS SSCT fibroblasts were cultured in Minimum Essential Media (MEM) supplemented with 10% fetal bovine serum (FBS) and 1% antibiotic/antimycotic. […]
Total RNA was isolated gene expression was evaluated using quantitative real-time polymerase chain reaction (qRT-PCR) as described elsewhere (Gingery et al., J. Orthop. Res., 32(11):1444-50 (2014)). TGF-β responsive genes (connective tissue growth factor (CTGF) and plasminogen activator inhibitor-1 (PAI-1)) were evaluated with TATA binding protein as the housekeeping gene.
Statistical analysis of qRT-PCR gene expression was normalized to control, and significance was determined by unpaired Student's t-test for each gene. […]

[1] = tested on: adenovirus-TGFβ models of pulmonary fibrosis; assay: Adenovirus-TGFβ model of pulmonary fibrosis; type: in vivo, Mice; details: 1 mg/kg daily from day 21
Description: FIGS. 13A-C. Mice were infected with 1×10^8 pfu adenovirus particles expressing control (GFP) or active TGFβ by tracheal instillation. On day 21, all animals began daily treatment with either vehicle (methocel/saline) or 1 mg/kg of the indicated TAT polypeptide. (A) On days 21 and 35, peripheral blood oxygen was determined. (B and C) Mice were sacrificed on day 39 and processed for lung hydroxyproline content (B) or qPCR expression of the indicated genes (C) (CTGF, connective tissue growth factor; α-SMA, alpha smooth muscle actin; Col Iα1, collagen Iα1). For panels A-C, data reflect mean+/−SEM of n=8 and n=16 for adenovirus-GFP and adenovirus-TGFβ, respectively. *P<0.05, **P<0.001, ***P<0.0005.
Mice were infected with 1×10^8 pfu adenovirus particles expressing control (GFP) or active TGFβ by tracheal instillation. On day 21, all animals began daily treatment with either vehicle (methocel/saline) or 1 mg/kg of the indicated TAT polypeptide. On days 21 and 35, peripheral blood oxygen was determined. Mice were sacrificed on day 39 and processed for lung hydroxyproline content or qPCR expression of CTGF (connective tissue growth factor), α-SMA (alpha smooth muscle actin), and Col Iα1 (collagen Iα1).

## TAT-SH3-2: TAT-SNX9(SH3) fusion polypeptide having SNX9 amino acids 21-51 (31 mer) (TVNEGEIITITNPDVGGGWLEGRNIKGERGL; left off: small tags and cut ends)
CTS SSCT fibroblasts
  expression of PAI-1: No significant differences
CTS SSCT fibroblasts; compared with vehicle, P<0.05
  CTGF gene expression: down regulated
[1]
  lung function (peripheral blood oxygen): stabilized lung function
